This is an account of results in US20050112183A1, “Compositions and methods for treating neuropathic sensory loss” (priority 2003, published 2005).

The assay relates to neuropathically induced negative sensory phenomena (NSP). The assay is described as follows: application of local anesthetic to diabetic neuropathy patients, patient-reported. As to conditions: some diabetic neuropathy patients; local application of the anesthetic. The assay is classed as in vivo. The text has this: It has previously been assumed that positive sensory phenomena (“PSP”) is caused by an increase in spontaneous nerve discharge from damaged and dysfunctional peripheral nerves. […] Based on the current understanding of the underlying etiology of NSP it would be unexpected that an anesthetic would effectively mitigate the negative effects of NSP. It has now been found, however, that the application of local anesthetics such as lidocaine can effectively treat NSP. For example, some diabetic neuropathy patients reported both pain relief and improved NSP, that is, the patients experienced pain relief, improvement of sensory loss (decreased numbness), and improved tactile response (they could better feel objects touching their skin). Thus the anesthetic as applied in this embodiment decreased numbness. This is contrary to all prior teachings about anesthetics.

On to `CCN(CC)CC(=O)Nc1c(C)cccc1C` [lidocaine, 2-(diethylamino)-N-(2,6-dimethylphenyl)-acetamide], for which the “negative sensory phenomena (NSP: numbness, sensory loss, tactile response) as reported by patients” value was “improved NSP” and the “pain as reported by patients” value is listed as “pain relief”.
